According to the METLIN SMRT retention time set (Domingo-Almenara et al. 2019):

Assay: gradient 5% acetonitrile 3 min, to 50% in 2 min, to 85% in 15 min, held 3 min, 100 µL/min
Details: column: Zorbax Extend-C18 2.1 x 50 mm; eluents: water / acetonitrile, 0.1% formic acid
Method in brief: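 Retention time was recorded from adduct peaks, which were picked computationally and each inspected manually. Pure standards ran in mixtures of ~100 molecules on HPLC coupled to a quadrupole time-of-flight mass spectrometer, in positive and negative ionization mode, through a Zorbax Extend-C18 column (2.1 × 50 mm, 1.8 μm) at 100 μL/min. Eluents were water and acetonitrile, each with 0.1% formic acid.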

| RP-LC retention time [s] | SMILES |
| --- | --- |
| 745 | CCOC(=O)C1CCN(Cc2nc(-c3ccc(N4CCC(C)CC4)nc3)no2)CC1 |
| 808 | Cc1cc2nn(CC(=O)NCC3CCCO3)c(=O)n2c(Nc2ccccc2C)n1 (stereo not drawn) |
| 720 | Cc1[nH]c(C)c(S(=O)(=O)N2CCC(C(=O)Nc3ccccc3F)CC2)c1C(=O)N1CCCC1 |
| 766 | CCCN(CCC)c1ncc(NC(=O)c2ccc(Br)cc2)cc1C(=O)O |
| 837 | CCCN1C(=O)c2cccnc2Sc2cc(C(=O)NC3CCCC3)ccc21 |
| 648 | COCCNC(=O)C1c2ccccc2CC(=O)N1C(C)C (stereo not drawn) |
| 961 | CC(C)(C)C(=O)Oc1ccc(S(=O)(=O)Nc2ccccc2C(=O)NCC(=O)O)cc1 |
| 640 | O=S(=O)(c1cccnc1)N1CCC2(CC1)NCCc1c2[nH]c2ccccc12 |
| 1070 | O=C(NC1CCCCC1)c1cccn1Cc1noc(-c2ccccc2)n1 |
| 576 | COC(=O)c1ccc(NC(=O)CSc2nnc(CN3CCOCC3)o2)cc1 |
| 686 | CC(C)NC(=O)C1CCCN(c2nc3ncn(CC(=O)Nc4ccccc4)c(=O)c3s2)C1 (stereo not drawn) |
| 1020 | Cc1ccc(-c2cc3c4nnc(SCC(=O)Nc5ccccc5C(F)(F)F)n4ccn3n2)cc1C |
| 578 | CC(C)c1ccc(CNC(=O)Cc2nnc(-c3ccccn3)o2)cc1 |
| 1140 | COCCCNC(=O)c1cc(-c2ccc(OC)cc2)nc2n[nH]c(-c3ccc(OC)cc3)c12 |
| 698 | COc1ccc(NC(=O)C2CCc3nc(N4CCCC4)ncc3C2)c(C)c1 (stereo not drawn) |
| 756 | Cc1nn(CC(=O)N2CCCC2)c(=O)c2nc(-c3ccccc3)sc12 |
| 579 | CCNC(=O)NCC1CCN(S(=O)(=O)C2CC2)CC1 |
| 729 | CCc1ccc(NC(=O)C2CCN(S(=O)(=O)c3c(C)[nH]c(C)c3C(=O)N3CCCC3)CC2)cc1 |
| 732 | Cn1cc(S(=O)(=O)N2CCC(C(=O)NC3CCCC3)CC2)cc1C(=O)N1CCCCC1 |
| 1170 | COc1ccc(-c2csc(C)n2)cc1S(=O)(=O)N1CCN(c2cccc(Cl)c2)CC1 |
| 1210 | Cc1ccc(-c2csc(Cc3nc(-c4ccc5c(c4)OCO5)no3)n2)cc1 |
| 1060 | CCOc1ccc(-c2cc3c(=O)n(Cc4nc(-c5ccc(OC)c(OC)c5)no4)ncn3n2)cc1 |

| RP-LC retention time [s] | SMILES |
| --- | --- |
| 664 | CCNc1cc(N2CCCC(CCC(=O)N3CCCC(C(=O)OCC)C3)C2)ncn1 (stereo not drawn) |
| 772 | Cc1ccccc1Cn1nc2n(c1=O)CCCCC2 |
| 897 | COc1ccc(-c2noc(C3CC(=O)N(c4ccc5c(c4)OCCO5)C3)n2)cc1 (stereo not drawn) |
| 832 | Cc1ccc(NC(=O)c2cn(-c3cc(N(C)C)ncn3)cn2)cc1 |
| 790 | O=C(Nc1ccccc1F)C1CCN(S(=O)(=O)c2cc(C(=O)N3CCCC3)cs2)CC1 |
| 618 | CCCN1C(=O)c2c(C(=O)N3CCOCC3)ncn2CC1(C)C(=O)NCc1ccc(F)cc1 (stereo not drawn) |
| 590 | C(=N/NC1=NCCN1)/c1c2ccccc2c(/C=N\NC2=NCCN2)c2ccccc12 |
| 950 | Cc1nn(-c2ccc(Cl)cc2)c(C)c1S(=O)(=O)N1CCC(C(=O)NCc2cccs2)CC1 |
| 812 | CCN(Cc1cnn(CC)c1)C(=O)C1CN(C(=O)c2ccccc2)CC12CCCCC2 (stereo not drawn) |
| 601 | CCNc1ncnc2sc3c(c12)CCN(C(=O)COC)C3 |
| 732 | Cc1ccc(Nc2c(-c3ccc(O)cc3)nc3cccc(C)n23)cc1 |
| 739 | COC(=O)C1=C(NC(=O)c2ccc(N3C(=O)CCC3=O)cc2)CCS1 |
| 691 | COCc1nc(CCNC(=O)NC2CCCCC2)no1 |
| 627 | COCCNC(=O)N1CCN(c2ncccc2-c2nnc(C(C)C)o2)CC1 |
| 870 | Cc1ccc(S(=O)(=O)N2CCC(c3nc(C(=O)N4CCOCC4)c(C)o3)CC2)cc1C |
| 941 | Cc1nc(OCC(=O)NCc2ccc(Cl)cc2)c2c(C)c(C)oc2n1 |
| 698 | Cc1cc(C)c2nc(C)cc(C(=O)NCc3ccco3)c2c1 |
| 648 | COCCCNC(=O)Cn1ccc2c(SCc3ccc(C)cc3)nccc21 |
| 902 | O=C(Cc1csc2nc(-c3ccccc3)cn12)Nc1ccc(F)c(Cl)c1 |
| 830 | COc1ccccc1NC(=O)N1c2ccccc2NC2=C(C(=O)CCC2)C1c1ccco1 (stereo not drawn) |
| 892 | COc1ccc(NC(=O)c2nnc(COCC(=O)NCCc3c[nH]c4ccc(C)cc34)s2)cc1 |
| 1010 | CCCn1c(=O)c2cc(C(=O)NCc3ccccc3C)nn2c2ccccc21 |

| RP-LC retention time [s] | SMILES |
| --- | --- |
| 927 | COC(=O)c1ccc(CSc2nnc(N3CCN(c4ccc(F)cc4)CC3)s2)o1 |
| 852 | Cc1cc2n(n1)CCCN2C(=O)CCC(=O)N1CCN(c2cc(Cl)ccc2C)CC1 |
| 679 | O=C(Cc1noc2ccccc12)NCCOc1ccc2nnc(-c3ccc(F)cc3)n2n1 |
| 776 | CC(C)N1C(=O)c2cccnc2Sc2cc(NC(=O)c3ccco3)ccc21 |
| 780 | CCN1C(=O)Cc2ccccc2C1C(=O)NCc1ccccc1Br (stereo not drawn) |
| 601 | Cc1ccc(C)c(NC(=O)C(=O)NCC(c2ccc3c(c2)CCCN3C)N2CCOCC2)c1 (stereo not drawn) |
| 568 | COc1ncccc1CNC(=O)NCc1ccco1 |
| 576 | Cc1noc([C@H]2CCN(C3CCSCC3)C[C@H]2NC(=O)C2CC2)n1 |
| 1220 | Cc1ccc(-c2nsc3c(=O)n(C)c(SCC(=O)N4CCOc5ccc(C)cc54)nc23)cc1 |
| 975 | Cc1ccc(N2C(=O)C3N=NN(Cc4nc(-c5ccccc5)no4)C3C2=O)cc1 (stereo not drawn) |
| 1010 | CCCNS(=O)(=O)c1ccc(-c2cc(C(F)(F)F)on2)o1 |
| 999 | CC1CCN(S(=O)(=O)c2ccc3nn(CC(=O)OC(C)(C)C)c(=O)n3c2)CC1 |
| 606 | O=C1CCCc2cc(S(=O)(=O)NCC3CCN(Cc4cccc(F)c4)CC3)ccc2N1 |
| 1010 | CC(C)c1cccc(N2C=C(C(=O)N3CCCCC3)S(=O)(=O)c3ccccc32)c1 |
| 767 | CCC(=O)Nc1cc2c(cc1S(=O)(=O)c1ccc(C)cc1)n(C)c(=O)n2C |
| 939 | COc1ccc(-c2nc(C3CC(=O)N(c4ccc(C)cc4)C3)no2)c(OC)c1 (stereo not drawn) |
| 776 | Cc1ccn(-c2ccc(Nc3ccc(NC(=O)c4ccc(Br)o4)cc3)nn2)n1 |
| 1020 | COc1cccc(-c2nnc(Cc3nc(-c4ccccc4Cl)no3)o2)c1 |
| 753 | COCc1nc2cccnc2n1C1CCN(C(=O)Nc2ccc(Br)c(C)c2)CC1 |
| 1190 | O=S(=O)(c1cc(-c2ccno2)cs1)N(Cc1cccs1)C1CCCCC1 |
| 806 | O=C1CCCCC(Cc2ccccc2)(C(=O)NCCc2ccccc2)N1 (stereo not drawn) |
| 918 | COc1ccc(Cc2nc3ccc(C(=O)NCc4ccc(C)o4)cc3o2)cc1 |

| RP-LC retention time [s] | SMILES |
| --- | --- |
| 730 | CCCNC(=O)C1CCCN(c2ccc(SCC(=O)Nc3cccc(Br)c3)nn2)C1 (stereo not drawn) |
| 896 | CC(C)N1C(=O)c2cccnc2Sc2cc(NC(=O)c3ccccc3F)ccc21 |
| 915 | COCCCNC(=O)c1csc(N2CCN(c3ccc(F)cc3)CC2)n1 |
| 653 | Cc1oc2c(c1C(=O)NCCc1ccccc1)C1=NC(C)(C)CN1C=N2 |
| 985 | CCOc1ccc(-c2csc(C)n2)cc1S(=O)(=O)Nc1ccc(F)cc1 |
| 725 | O=C(C1CCN(S(=O)(=O)Cc2ccc(Cl)cc2)CC1)N1CCOCC1 |
| 745 | COc1ccc(NC(=O)NCC23CCC=C2N(C)C(=O)CC3)cc1 (stereo not drawn) |
| 732 | O=C(NCc1cccs1)C1CCN(c2cnc(N3CCCCCC3)nc2)CC1 |
| 642 | Cc1ccc(F)c(-n2nnc(C(=O)O)c2-c2cccnc2)c1 |
| 611 | Cn1ncc2c3ccccc3n(CC(=O)N3CCC(C(N)=O)CC3)c2c1=O |
| 1050 | O=C(c1cncc(Br)c1)N1CCC(Cc2nc(-c3ccc(Cl)cc3)no2)CC1 |
| 1280 | COc1ccc(-c2noc(Cc3nc(-c4ccc(Br)cc4)cs3)n2)cc1 |
| 829 | COc1ccc(N2CCN(C(=O)C3CCCN(c4nnc(-n5cccc5)s4)C3)CC2)cc1 (stereo not drawn) |
| 1230 | COc1cc2c(cc1OC)C(C(=O)N1CCN(c3ccccn3)CC1)C(c1cccnc1)N(C)C2=O (stereo not drawn) |
| 1120 | COc1ccc2c(c1)c1ccc3c(c1n2C)C(=O)C=CC3=O |
| 768 | O=S(=O)(NCc1nc(-c2cccc(-c3ccn[nH]3)c2)no1)c1ccccc1 |
| 763 | CCn1c(SC)nnc1-c1nn(C)c2c1CN(C(=O)c1ccc(F)cc1)CC2 |
| 658 | O=C(Nc1nccs1)C1CCN(C(=O)c2ccc([N+](=O)[O-])o2)CC1 |
| 678 | Cc1cccc2nc(-c3c(F)cccc3Cl)c(Nc3ccc4c(c3)OCCO4)n12 |
| 1110 | Cc1cc(C)c(C)c(S(=O)(=O)N2CCC(OCc3noc(C4CCCO4)n3)CC2)c1C (stereo not drawn) |

| SMILES | RP-LC retention time [s] |
| --- | --- |
| CN[C@@H]1C[C@@H](c2ccc(Cl)c(Cl)c2)c2ccccc21 | 824 |
| COc1ccc2c(c1)C1(CCN(S(=O)(=O)c3ccccc3)C1)C(=O)N2 (stereo not drawn) | 771 |
